Assay results from PubChem BioAssay AID1963864 (Molecular Pharmacology Branch, DTP, NCI, 2024).
pIC50: −log10 of the molar value.

Test system: KRAS PDC multicell spheroid viability
Test: Anticancer human tumor 521955-158-R6-J3-PDC patient-derived pancreatic carcinoma cell line growth inhibition [KRAS2]
Details: for pIC50: curve of first compound; for viability, T/C: stronger effect = lower value
Outline: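 KRAS-mutant tumor cells were grown as spheroids with HUVEC endothelial cells and human MSCs as stroma. Targeted agents were tested alone and with KRAS pathway inhibitors. Doses started at or near clinical Cmax, or 10 microM, descending half-log.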

[1] = second compound 0.1 µM, first compound 0.000316 µM
[2] = second compound 0.1 µM, first compound 0.001 µM
[3] = second compound 0.1 µM, first compound 0.00316 µM
[4] = second compound 0.1 µM, first compound 0.01 µM
[5] = second compound 0.1 µM, first compound 0.0316 µM
[6] = second compound 0.316 µM, first compound 0.000316 µM
[7] = second compound 0.316 µM, first compound 0.001 µM
[8] = second compound 0.316 µM, first compound 0.00316 µM
[9] = second compound 0.316 µM, first compound 0.01 µM
[10] = second compound 0.316 µM, first compound 0.0316 µM
[11] = second compound 1 µM, first compound 0.000316 µM
[12] = second compound 1 µM, first compound 0.001 µM
[13] = second compound 1 µM, first compound 0.00316 µM
[14] = second compound 1 µM, first compound 0.01 µM
[15] = second compound 1 µM, first compound 0.0316 µM
[16] = second compound 3.16 µM, first compound 0.000316 µM
[17] = second compound 3.16 µM, first compound 0.001 µM
[18] = second compound 3.16 µM, first compound 0.00316 µM
[19] = second compound 3.16 µM, first compound 0.01 µM
[20] = second compound 3.16 µM, first compound 0.0316 µM
[21] = second compound 10 µM, first compound 0.000316 µM
[22] = second compound 10 µM, first compound 0.001 µM
[23] = second compound 10 µM, first compound 0.00316 µM
[24] = second compound 10 µM, first compound 0.01 µM
[25] = second compound 10 µM, first compound 0.0316 µM
[26] = second compound 0.1 µM, first compound 0.1 µM
[27] = second compound 0.316 µM, first compound 0.1 µM
[28] = second compound 1 µM, first compound 0.1 µM
[29] = second compound 3.16 µM, first compound 0.1 µM
[30] = second compound 10 µM, first compound 0.1 µM
[31] = second compound 0.1 µM, first compound 0.316 µM
[32] = second compound 0.1 µM, first compound 1 µM
[33] = second compound 0.1 µM, first compound 3.16 µM
[34] = second compound 0.1 µM, first compound 10 µM
[35] = second compound 0.316 µM, first compound 0.316 µM
[36] = second compound 0.316 µM, first compound 1 µM
[37] = second compound 0.316 µM, first compound 3.16 µM
[38] = second compound 0.316 µM, first compound 10 µM
[39] = second compound 1 µM, first compound 0.316 µM
[40] = second compound 1 µM, first compound 1 µM
[41] = second compound 1 µM, first compound 3.16 µM
[42] = second compound 1 µM, first compound 10 µM
[43] = second compound 3.16 µM, first compound 0.316 µM
[44] = second compound 3.16 µM, first compound 1 µM
[45] = second compound 3.16 µM, first compound 3.16 µM
[46] = second compound 3.16 µM, first compound 10 µM
[47] = second compound 10 µM, first compound 0.316 µM
[48] = second compound 10 µM, first compound 1 µM
[49] = second compound 10 µM, first compound 3.16 µM
[50] = second compound 10 µM, first compound 10 µM
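Also: drug exposure lasted seven days.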
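For viability, T/C in this document: 100% = DMSO vehicle wells and lower means fewer viable cells.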

CC(=O)Nc1cccc(-n2c(=O)n(C3CC3)c(=O)c3c(Nc4ccc(I)cc4F)n(C)c(=O)c(C)c32)c1 + CC1OCC2(CCN(c3cnc(Sc4ccnc(N)c4Cl)c(N)n3)CC2)C1N
pIC50 (second compound 0.1 µM): 7.72
pIC50 (second compound 0.316 µM): 7.90
pIC50 (second compound 1 µM): 8.27
pIC50 (second compound 3.16 µM): 8.61
pIC50 (second compound 10 µM): 8.65
viability, T/C (second compound 0.1 µM, first compound 0.0001 µM): 87.8%
viability, T/C [1]: 82.8%
viability, T/C [2]: 91.2%
viability, T/C [3]: 83.5%
viability, T/C [4]: 56.7%
viability, T/C [5]: 44.6%
viability, T/C (second compound 0.316 µM, first compound 0.0001 µM): 83.2%
viability, T/C [6]: 85.7%
viability, T/C [7]: 77.2%
viability, T/C [8]: 65%
viability, T/C [9]: 55.7%
viability, T/C [10]: 33.7%
viability, T/C (second compound 1 µM, first compound 0.0001 µM): 103%
viability, T/C [11]: 87.6%
viability, T/C [12]: 80.1%
viability, T/C [13]: 55.3%
viability, T/C [14]: 41.8%
viability, T/C [15]: 27.8%
viability, T/C (second compound 3.16 µM, first compound 0.0001 µM): 105%
viability, T/C [16]: 90.7%
viability, T/C [17]: 62.8%
viability, T/C [18]: 47%
viability, T/C [19]: 34.9%
viability, T/C [20]: 28.6%
viability, T/C (second compound 10 µM, first compound 0.0001 µM): 85.6%
viability, T/C [21]: 70.9%
viability, T/C [22]: 67.4%
viability, T/C [23]: 42.3%
viability, T/C [24]: 30.3%
viability, T/C [25]: 23%

CC(C)n1nc(-c2ccc3oc(N)nc3c2)c2c(N)ncnc21 + CC1OCC2(CCN(c3cnc(Sc4ccnc(N)c4Cl)c(N)n3)CC2)C1N
pIC50 (second compound 0.1 µM): < 7.00
pIC50 (second compound 0.316 µM): 7.25
pIC50 (second compound 1 µM): 7.25
pIC50 (second compound 3.16 µM): 7.47
pIC50 (second compound 10 µM): 7.63
viability, T/C [1]: 89%
viability, T/C [2]: 85.8%
viability, T/C [3]: 74%
viability, T/C [4]: 65.3%
viability, T/C [5]: 57.4%
viability, T/C [26]: 50%
viability, T/C [6]: 92.3%
viability, T/C [7]: 84.2%
viability, T/C [8]: 71.7%
viability, T/C [9]: 65.6%
viability, T/C [10]: 56.2%
viability, T/C [27]: 44.3%
viability, T/C [11]: 88.3%
viability, T/C [12]: 86.5%
viability, T/C [13]: 74.2%
viability, T/C [14]: 66.8%
viability, T/C [15]: 56%
viability, T/C [28]: 44.1%
viability, T/C [16]: 112%
viability, T/C [17]: 113%
viability, T/C [18]: 88.8%
viability, T/C [19]: 70.7%
viability, T/C [20]: 51.3%
viability, T/C [29]: 40.2%
viability, T/C [21]: 99.1%
viability, T/C [22]: 101%
viability, T/C [23]: 89.7%
viability, T/C [24]: 63.1%
viability, T/C [25]: 47.3%
viability, T/C [30]: 38.3%

CC1(C)CCC(CN2CCN(c3ccc(C(=O)NS(=O)(=O)c4ccc(NCC5CCOCC5)c([N+](=O)[O-])c4)c(Oc4cnc5[nH]ccc5c4)c3)CC2)=C(c2ccc(Cl)cc2)C1 + CC1OCC2(CCN(c3cnc(Sc4ccnc(N)c4Cl)c(N)n3)CC2)C1N
pIC50 (second compound 0.1 µM): 5.15
pIC50 (second compound 0.316 µM): 5.24
pIC50 (second compound 1 µM): 5.26
pIC50 (second compound 3.16 µM): 5.36
pIC50 (second compound 10 µM): 5.55
viability, T/C [5]: 96%
viability, T/C [26]: 89.7%
viability, T/C [31]: 95.3%
viability, T/C [32]: 77.6%
viability, T/C [33]: 70.5%
viability, T/C [34]: 41.3%
viability, T/C [10]: 86.2%
viability, T/C [27]: 98.2%
viability, T/C [35]: 89%
viability, T/C [36]: 87%
viability, T/C [37]: 62%
viability, T/C [38]: 39.3%
viability, T/C [15]: 102%
viability, T/C [28]: 94.7%
viability, T/C [39]: 103%
viability, T/C [40]: 99%
viability, T/C [41]: 71.1%
viability, T/C [42]: 27.3%
viability, T/C [20]: 115%
viability, T/C [29]: 120%
viability, T/C [43]: 121%
viability, T/C [44]: 116%
viability, T/C [45]: 64.2%
viability, T/C [46]: 13.1%
viability, T/C [25]: 107%
viability, T/C [30]: 109%
viability, T/C [47]: 114%
viability, T/C [48]: 107%
viability, T/C [49]: 44.3%
viability, T/C [50]: 3.41%

COc1cc(Nc2ncc3c(n2)-c2ccc(Cl)cc2C(c2c(F)cccc2OC)=NC3)ccc1C(=O)O + CC1OCC2(CCN(c3cnc(Sc4ccnc(N)c4Cl)c(N)n3)CC2)C1N
pIC50 (second compound 0.1 µM): < 5.00
pIC50 (second compound 0.316 µM): < 5.00
pIC50 (second compound 1 µM): < 5.00
pIC50 (second compound 3.16 µM): < 5.00
pIC50 (second compound 10 µM): < 5.00
viability, T/C [5]: 101%
viability, T/C [26]: 101%
viability, T/C [31]: 99.8%
viability, T/C [32]: 82.2%
viability, T/C [33]: 99.8%
viability, T/C [34]: 95.8%
viability, T/C [10]: 97.1%
viability, T/C [27]: 95.1%
viability, T/C [35]: 95.6%
viability, T/C [36]: 86.6%
viability, T/C [37]: 81.3%
viability, T/C [38]: 87.9%
viability, T/C [15]: 102%
viability, T/C [28]: 98.5%
viability, T/C [39]: 88.1%
viability, T/C [40]: 91.7%
viability, T/C [41]: 90.9%
viability, T/C [42]: 98%
viability, T/C [20]: 103%
viability, T/C [29]: 105%
viability, T/C [43]: 97.9%
viability, T/C [44]: 103%
viability, T/C [45]: 104%
viability, T/C [46]: 93.4%
viability, T/C [25]: 113%
viability, T/C [30]: 101%
viability, T/C [47]: 103%
viability, T/C [48]: 96.5%
viability, T/C [49]: 103%
viability, T/C [50]: 91.5%

COc1cc2nccc(Oc3ccc(NC(=O)C4(C(=O)Nc5ccc(F)cc5)CC4)cc3)c2cc1OC + CC1OCC2(CCN(c3cnc(Sc4ccnc(N)c4Cl)c(N)n3)CC2)C1N
pIC50 (second compound 0.1 µM): < 5.00
pIC50 (second compound 0.316 µM): < 5.00
pIC50 (second compound 1 µM): < 5.00
pIC50 (second compound 3.16 µM): < 5.00
pIC50 (second compound 10 µM): < 5.00
viability, T/C [5]: 93.7%
viability, T/C [26]: 93.7%
viability, T/C [31]: 89.3%
viability, T/C [32]: 102%
viability, T/C [33]: 105%
viability, T/C [34]: 102%
viability, T/C [10]: 97.5%
viability, T/C [27]: 91%
viability, T/C [35]: 89.3%
viability, T/C [36]: 105%
viability, T/C [37]: 108%
viability, T/C [38]: 86.5%
viability, T/C [15]: 116%
viability, T/C [28]: 96.8%
viability, T/C [39]: 108%
viability, T/C [40]: 112%
viability, T/C [41]: 90.7%
viability, T/C [42]: 90%
viability, T/C [20]: 115%
viability, T/C [29]: 122%
viability, T/C [43]: 118%
viability, T/C [44]: 119%
viability, T/C [45]: 103%
viability, T/C [46]: 81.6%
viability, T/C [25]: 112%
viability, T/C [30]: 121%
viability, T/C [47]: 111%
viability, T/C [48]: 119%
viability, T/C [49]: 80.6%
viability, T/C [50]: 67.7%

Cn1ncnc1[C@H]1c2n[nH]c(=O)c3cc(F)cc(c23)N[C@@H]1c1ccc(F)cc1 + CC1OCC2(CCN(c3cnc(Sc4ccnc(N)c4Cl)c(N)n3)CC2)C1N
pIC50 (second compound 0.1 µM): < 7.00
pIC50 (second compound 0.316 µM): < 7.00
pIC50 (second compound 1 µM): < 7.00
pIC50 (second compound 3.16 µM): < 7.00
pIC50 (second compound 10 µM): < 7.00
viability, T/C [1]: 86.7%
viability, T/C [2]: 91%
viability, T/C [3]: 78.5%
viability, T/C [4]: 83.2%
viability, T/C [5]: 79.5%
viability, T/C [26]: 77.2%
viability, T/C [6]: 93.3%
viability, T/C [7]: 76.7%
viability, T/C [8]: 81.5%
viability, T/C [9]: 80.2%
viability, T/C [10]: 79.2%
viability, T/C [27]: 78.2%
viability, T/C [11]: 83.6%
viability, T/C [12]: 82%
viability, T/C [13]: 79%
viability, T/C [14]: 78%
viability, T/C [15]: 82.9%
viability, T/C [28]: 86.4%
viability, T/C [16]: 99.8%
viability, T/C [17]: 95.6%
viability, T/C [18]: 96.3%
viability, T/C [19]: 106%
viability, T/C [20]: 96.2%
viability, T/C [29]: 82%
viability, T/C [21]: 105%
viability, T/C [22]: 103%
viability, T/C [23]: 95%
viability, T/C [24]: 103%
viability, T/C [25]: 100%
viability, T/C [30]: 97.9%
